Source: paper PMC9516332 (Frontiers in Oncology, 2022)
Like-named read-outs stand apart in the source and are kept apart here.

Key:
134 cancer cell lines [1] = assay: Cell viability assay (ATPlite, 72 hours), IC50 on cancer cell line panel
[2] = target: panel of 255 wild-type kinases (Homo sapiens, UniProt P42684); assay: Kinase panel profiling at 1 µmol/L (MSA or IMAP), percentage inhibition; assay type: biochemical; conditions: ARG kinase assay; 1 µmol/L single concentration; read-out: %-inhibition ARG
[3] = target: panel of 255 wild-type kinases (Homo sapiens, UniProt O00311); assay: as above; assay type: biochemical; conditions: CDC7/ASK kinase assay; 1 µmol/L single concentration; read-out: %-inhibition CDC7/ASK
134 cancer cell lines [4] = system: 134 cancer cell lines

O=C(Nc1cnn2ccc(N3CCC[C@@H]3c3cc(F)ccc3F)nc12)N1CC[C@H](O)C1 [larotrectinib]
IC50 (134 cancer cell lines [1]; Homo sapiens, MV4-11, read-out: IC50 in cell proliferation assay, MV4-11 cell line (FLT3 ITD)): 26.5 µM
IC50 (134 cancer cell lines [1]; Homo sapiens, MeWo, read-out: IC50 in cell proliferation assay, MeWo cell line): > 31.6 µM
IC50 (134 cancer cell lines [1]; Homo sapiens, NCCIT, read-out: IC50 in cell proliferation assay, NCC-IT cell line): > 31.6 µM
IC50 (134 cancer cell lines [1]; Homo sapiens, NCI-H82, read-out: IC50 in cell proliferation assay, cell line NCI-H82): > 31.6 µM
IC50 (134 cancer cell lines [1]; Homo sapiens, NCI-H460, read-out: IC50 in cell proliferation assay, NCI-H460 cell line): > 31.6 µM
IC50 (134 cancer cell lines [1]; Homo sapiens, NCI-H661, read-out: IC50 in cell proliferation assay, NCI-H661 cell line): > 31.6 µM
IC50 (134 cancer cell lines [1]; Homo sapiens, NCI-H716, read-out: IC50 in cell proliferation assay, cell line NCI-H716 (FGFR2-COL14A1)): > 31.6 µM
IC50 (134 cancer cell lines [1]; Homo sapiens, NCI-H1650, read-out: IC50 in cell proliferation assay, NCI-H1650 cell line (EGFR exon19del)): > 31.6 µM
IC50 (134 cancer cell lines [1]; Homo sapiens, NCI-H1975, read-out: IC50 in cell proliferation assay, NCI-H1975 cell line (EGFR p.L858R + p.T790M)): > 31.6 µM
IC50 (134 cancer cell lines [1]; Homo sapiens, NCI-H2228, read-out: IC50 in cell proliferation assay, NCI-H2228 cell line (EML4-ALK)): > 31.6 µM
IC50 (134 cancer cell lines [1]; Homo sapiens, OVCAR-3, read-out: IC50 in cell proliferation assay, cell line OVCAR-3): > 31.6 µM
IC50 (134 cancer cell lines [1]; Homo sapiens, PFSK-1, read-out: IC50 in cell proliferation assay, cell line PFSK-1): > 31.6 µM
IC50 (134 cancer cell lines [1]; Homo sapiens, RL95-2, read-out: IC50 in cell proliferation assay, cell line RL95-2 (EGFR p.A289V)): > 31.6 µM
IC50 (134 cancer cell lines [1]; Homo sapiens, RPMI-7951, read-out: IC50 in cell proliferation assay, cell line RPMI-7951 (BRAF p.V600E)): > 31.6 µM
IC50 (134 cancer cell lines [1]; Homo sapiens, RS4-11, read-out: IC50 in cell proliferation assay, cell line RS4;11): > 31.6 µM
IC50 (134 cancer cell lines [1]; Homo sapiens, Rec1, read-out: IC50 in cell proliferation assay, cell line REC-1): > 31.6 µM
IC50 (134 cancer cell lines [1]; Homo sapiens, SHP77, read-out: IC50 in cell proliferation assay, cell line SHP-77): > 31.6 µM
IC50 (134 cancer cell lines [1]; Homo sapiens, SK-BR-3, read-out: IC50 in cell proliferation assay, cell line SK-BR-3 (ERBB2 amplification)): > 31.6 µM
IC50 (134 cancer cell lines [1]; Homo sapiens, SK-N-AS, read-out: IC50 in cell proliferation assay, cell line SK-N-AS): > 31.6 µM
IC50 (134 cancer cell lines [1]; Homo sapiens, SK-N-FI, read-out: IC50 in cell proliferation assay, cell line SK-N-FI): > 31.6 µM
IC50 (134 cancer cell lines [1]; Homo sapiens, SK-N-MC, read-out: IC50 in cell proliferation assay, cell line SK-N-MC): > 31.6 µM
IC50 (134 cancer cell lines [1]; Homo sapiens, SK-N-SH, read-out: IC50 in cell proliferation assay, cell line SK-N-SH (ALK p.F1174L)): > 31.6 µM
IC50 (134 cancer cell lines [1]; Homo sapiens, SNU-5, read-out: IC50 in cell proliferation assay, cell line SNU-5 (MET amplification)): > 31.6 µM
IC50 (134 cancer cell lines [1]; Homo sapiens, SNU-16, read-out: IC50 in cell proliferation assay, cell line SNU-16 (FGFR2 amplification)): > 31.6 µM
IC50 (134 cancer cell lines [1]; Homo sapiens, SNU-C2B, read-out: IC50 in cell proliferation assay, cell line SNU-C2B (EGFR p.R165Q)): > 31.6 µM
IC50 (134 cancer cell lines [1]; Homo sapiens, SU-DHL-1, read-out: IC50 in cell proliferation assay, cell line SU-DHL-1 (NPM1-ALK)): > 31.6 µM
IC50 (134 cancer cell lines [1]; Homo sapiens, SU-DHL-6, read-out: IC50 in cell proliferation assay, cell line SU-DHL-6): > 31.6 µM
IC50 (134 cancer cell lines [1]; Homo sapiens, SUP-T1, read-out: IC50 in cell proliferation assay, cell line SUP-T1): > 31.6 µM
IC50 (134 cancer cell lines [1]; Homo sapiens, SW48, read-out: IC50 in cell proliferation assay, cell line SW48 (EGFR p.G719S)): > 31.6 µM
IC50 (134 cancer cell lines [1]; Homo sapiens, SW480, read-out: IC50 in cell proliferation assay, cell line SW480): > 31.6 µM
IC50 (134 cancer cell lines [1]; Homo sapiens, SW626, read-out: IC50 in cell proliferation assay, cell line SW626): > 31.6 µM
IC50 (134 cancer cell lines [1]; Homo sapiens, SW780, read-out: IC50 in cell proliferation assay, cell line SW780 (FGFR3-BAIAP2L1)): > 31.6 µM
IC50 (134 cancer cell lines [1]; Homo sapiens, SW837, read-out: IC50 in cell proliferation assay, cell line SW837): > 31.6 µM
IC50 (134 cancer cell lines [1]; Homo sapiens, SW872, read-out: IC50 in cell proliferation assay, cell line SW872 (BRAF p.V600E)): > 31.6 µM
IC50 (134 cancer cell lines [1]; Homo sapiens, SW900, read-out: IC50 in cell proliferation assay, cell line SW900): > 31.6 µM
IC50 (134 cancer cell lines [1]; Homo sapiens, SW948, read-out: IC50 in cell proliferation assay, cell line SW948): > 31.6 µM
IC50 (134 cancer cell lines [1]; Homo sapiens, SW982, read-out: IC50 in cell proliferation assay, cell line SW982 (BRAF p.V600E)): > 31.6 µM
IC50 (134 cancer cell lines [1]; Homo sapiens, SW-620, read-out: IC50 in cell proliferation assay, cell line SW620): > 31.6 µM
IC50 (134 cancer cell lines [1]; Homo sapiens, T98G, read-out: IC50 in cell proliferation assay, cell line T98G): > 31.6 µM
IC50 (134 cancer cell lines [1]; Homo sapiens, TCC-SUP, read-out: IC50 in cell proliferation assay, cell line TCCSUP): > 31.6 µM
IC50 (134 cancer cell lines [1]; Homo sapiens, THP-1, read-out: IC50 in cell proliferation assay, cell line THP-1): > 31.6 µM
IC50 (134 cancer cell lines [1]; Homo sapiens, U2OS, read-out: IC50 in cell proliferation assay, cell line U2OS): > 31.6 µM
IC50 (134 cancer cell lines [1]; Homo sapiens, U-87 MG, read-out: IC50 in cell proliferation assay, cell line U-87MG ATCC): > 31.6 µM
IC50 (134 cancer cell lines [1]; Homo sapiens, U-118-MG, read-out: IC50 in cell proliferation assay, cell line U-118MG): > 31.6 µM
IC50 (134 cancer cell lines [1]; Homo sapiens, UMUC3, read-out: IC50 in cell proliferation assay, cell line UM-UC-3): > 31.6 µM
IC50 (134 cancer cell lines [1]; Hs766T, read-out: IC50 in cell proliferation assay, Hs 766T cell line): > 31.6 µM
IC50 (134 cancer cell lines [1]; L-82, read-out: IC50 in cell proliferation assay, L-82 cell line (NPM1-ALK)): > 31.6 µM
IC50 (134 cancer cell lines [1]; Rh30, read-out: IC50 in cell proliferation assay, cell line Rh30): > 31.6 µM
IC50 (134 cancer cell lines [1]; read-out: IC50 in cell proliferation assay, 11-18 cell line (EGFR p.L858R)): > 31.6 µM
IC50 (134 cancer cell lines [1]; read-out: IC50 in cell proliferation assay, Hs 852.T cell line): > 31.6 µM
IC50 (134 cancer cell lines [1]; read-out: IC50 in cell proliferation assay, JAR cell line): > 31.6 µM
IC50 (134 cancer cell lines [1]; read-out: IC50 in cell proliferation assay, cell line 5637): > 31.6 µM
IC50 (134 cancer cell lines [1]; read-out: IC50 in cell proliferation assay, cell line A-388): > 31.6 µM
IC50 (134 cancer cell lines [1]; read-out: IC50 in cell proliferation assay, cell line DB): > 31.6 µM
IC50 (134 cancer cell lines [1]; read-out: IC50 in cell proliferation assay, cell line DEL (NPM1-ALK)): > 31.6 µM
IC50 (134 cancer cell lines [1]; read-out: IC50 in cell proliferation assay, cell line ES-2 (BRAF p.V600E)): > 31.6 µM
IC50 (134 cancer cell lines [1]; read-out: IC50 in cell proliferation assay, cell line PA-1): > 31.6 µM
IC50 (134 cancer cell lines [1]; read-out: IC50 in cell proliferation assay, cell line PC-3): > 31.6 µM
IC50 (134 cancer cell lines [1]; read-out: IC50 in cell proliferation assay, cell line RD): > 31.6 µM
IC50 (134 cancer cell lines [1]; read-out: IC50 in cell proliferation assay, cell line RKO (BRAF p.V600E)): > 31.6 µM
IC50 (134 cancer cell lines [1]; read-out: IC50 in cell proliferation assay, cell line RL): > 31.6 µM
IC50 (134 cancer cell lines [1]; read-out: IC50 in cell proliferation assay, cell line RT-4 (FGFR3-TACC3)): > 31.6 µM
IC50 (134 cancer cell lines [1]; read-out: IC50 in cell proliferation assay, cell line SR (NPM1-ALK)): > 31.6 µM
IC50 (134 cancer cell lines [1]; read-out: IC50 in cell proliferation assay, cell line T24): > 31.6 µM
IC50 (134 cancer cell lines [1]; read-out: IC50 in cell proliferation assay, cell line TT (RET p.C634W)): > 31.6 µM
IC50 (134 cancer cell lines [1]; read-out: IC50 in cell proliferation assay, cell line VA-ES-BJ): > 31.6 µM
inhibition at 1 µM [2]: -0.835%
inhibition at 1 µM [3]: -3.24%
IC50 (134 cancer cell lines [4]): > 31.6 µM
